Assay results taken from PubChem BioAssay (NCI).
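Test compounds were applied to cells in 96-well plates for 48 hours at 5 doses. GI50 is the concentration that inhibits growth by half. The concentration for full growth arrest is given as TGI.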

Key:
Test in all cases: NCI tumour cell line growth inhibition, 48 h
786-0 renal = test system: 786-0 renal
A498 renal = test system: A498 renal
A549 NSCLC = test system: A549 NSCLC
ACHN renal = test system: ACHN renal
BT-549 breast = test system: BT-549 breast
CAKI-1 renal = test system: CAKI-1 renal
CCRF-CEM leukemia = test system: CCRF-CEM leukemia
COLO 205 colon = test system: COLO 205 colon
DU-145 prostate = test system: DU-145 prostate
EKVX NSCLC = test system: EKVX NSCLC
HCC-2998 colon = test system: HCC-2998 colon
HCT-116 colon = test system: HCT-116 colon
HCT-15 colon = test system: HCT-15 colon
HOP-62 NSCLC = test system: HOP-62 NSCLC
HOP-92 NSCLC = test system: HOP-92 NSCLC
HS 578T breast = test system: HS 578T breast
K-562 leukemia = test system: K-562 leukemia
KM12 colon = test system: KM12 colon
LOX IMVI melanoma = test system: LOX IMVI melanoma
M14 melanoma = test system: M14 melanoma
MALME-3M melanoma = test system: MALME-3M melanoma
MCF7 breast = test system: MCF7 breast
MDA-MB-231 breast = test system: MDA-MB-231 breast
MDA-MB-435 = test system: MDA-MB-435
MOLT-4 leukemia = test system: MOLT-4 leukemia
NCI-H23 lung = test system: NCI-H23 lung
NCI-H460 lung = test system: NCI-H460 lung
NCI/ADR-RES ovarian = test system: NCI/ADR-RES ovarian
OVCAR-3 ovarian = test system: OVCAR-3 ovarian
OVCAR-4 ovarian = test system: OVCAR-4 ovarian
OVCAR-5 ovarian = test system: OVCAR-5 ovarian
OVCAR-8 ovarian = test system: OVCAR-8 ovarian
PC-3 prostate = test system: PC-3 prostate
RPMI-8226 leukemia = test system: RPMI-8226 leukemia
RXF 393 renal = test system: RXF 393 renal
SF-268 CNS = test system: SF-268 CNS
SF-295 CNS = test system: SF-295 CNS
SF-539 CNS = test system: SF-539 CNS
SK-MEL-28 melanoma = test system: SK-MEL-28 melanoma
SK-MEL-5 melanoma = test system: SK-MEL-5 melanoma
SK-OV-3 ovarian = test system: SK-OV-3 ovarian
SN12C renal = test system: SN12C renal
SNB-19 CNS = test system: SNB-19 CNS
SR leukemia = test system: SR leukemia
SW-620 colon = test system: SW-620 colon
T-47D breast = test system: T-47D breast
TK-10 renal = test system: TK-10 renal
U251 CNS = test system: U251 CNS
UACC-257 melanoma = test system: UACC-257 melanoma
UACC-62 melanoma = test system: UACC-62 melanoma

Compound: Cc1ccc(/C(=C/C=C(C#N)C#N)Sc2ccc(Cl)cc2)cc1
- GI50 (786-0 renal): 1.9 µM
- TGI (786-0 renal): 4.57 µM
- GI50 (A498 renal): 19.4 µM
- TGI (A498 renal): 34.8 µM
- GI50 (A549 NSCLC): 12.4 µM
- TGI (A549 NSCLC): 28 µM
- GI50 (ACHN renal): 4.62 µM
- TGI (ACHN renal): 36.9 µM
- GI50 (BT-549 breast): 3.37 µM
- TGI (BT-549 breast): 9.16 µM
- GI50 (CAKI-1 renal): 2.03 µM
- TGI (CAKI-1 renal): 5.3 µM
- GI50 (CCRF-CEM leukemia): 2.41 µM
- TGI (CCRF-CEM leukemia): 17.4 µM
- GI50 (COLO 205 colon): 7.58 µM
- TGI (COLO 205 colon): 30.4 µM
- GI50 (DU-145 prostate): 3.95 µM
- TGI (DU-145 prostate): 11.3 µM
- GI50 (EKVX NSCLC): 22.3 µM
- TGI (EKVX NSCLC): 49.4 µM
- GI50 (HCC-2998 colon): 18 µM
- TGI (HCC-2998 colon): 31.9 µM
- GI50 (HCT-116 colon): 2.24 µM
- TGI (HCT-116 colon): 3.97 µM
- GI50 (HCT-15 colon): 4.12 µM
- TGI (HCT-15 colon): 23.1 µM
- GI50 (HOP-62 NSCLC): 6.4 µM
- TGI (HOP-62 NSCLC): 15.6 µM
- GI50 (HOP-92 NSCLC): 15 µM
- TGI (HOP-92 NSCLC): 56.6 µM
- GI50 (HS 578T breast): 14.3 µM
- TGI (HS 578T breast): 58.4 µM
- GI50 (K-562 leukemia): 3.34 µM
- TGI (K-562 leukemia): 18.4 µM
- GI50 (KM12 colon): 5.5 µM
- TGI (KM12 colon): 26.7 µM
- GI50 (LOX IMVI melanoma): 2.57 µM
- TGI (LOX IMVI melanoma): 5.98 µM
- GI50 (M14 melanoma): 5.44 µM
- TGI (M14 melanoma): 17.7 µM
- GI50 (MALME-3M melanoma): 12.2 µM
- TGI (MALME-3M melanoma): 30.5 µM
- GI50 (MCF7 breast): 5.24 µM
- TGI (MCF7 breast): > 100 µM
- GI50 (MDA-MB-231 breast): 10.5 µM
- TGI (MDA-MB-231 breast): 28.4 µM
- GI50 (MDA-MB-435): 3.02 µM
- TGI (MDA-MB-435): 10.7 µM
- GI50 (MOLT-4 leukemia): 1.85 µM
- TGI (MOLT-4 leukemia): 14.3 µM
- GI50 (NCI-H23 lung): 9.54 µM
- TGI (NCI-H23 lung): 23.4 µM
- GI50 (NCI-H460 lung): 9.24 µM
- TGI (NCI-H460 lung): 29.7 µM
- GI50 (NCI/ADR-RES ovarian): 5.99 µM
- TGI (NCI/ADR-RES ovarian): 19.9 µM
- GI50 (OVCAR-3 ovarian): 2.31 µM
- TGI (OVCAR-3 ovarian): 9.34 µM
- GI50 (OVCAR-4 ovarian): 11.3 µM
- TGI (OVCAR-4 ovarian): > 100 µM
- GI50 (OVCAR-5 ovarian): 11.4 µM
- TGI (OVCAR-5 ovarian): 25.5 µM
- GI50 (OVCAR-8 ovarian): 11.4 µM
- TGI (OVCAR-8 ovarian): 32.4 µM
- GI50 (PC-3 prostate): 3.65 µM
- TGI (PC-3 prostate): 14.7 µM
- GI50 (RPMI-8226 leukemia): 2.34 µM
- TGI (RPMI-8226 leukemia): 7.96 µM
- GI50 (RXF 393 renal): 11.9 µM
- TGI (RXF 393 renal): 39.2 µM
- GI50 (SF-268 CNS): 9.8 µM
- TGI (SF-268 CNS): 35.7 µM
- GI50 (SF-295 CNS): 4.07 µM
- TGI (SF-295 CNS): 16.8 µM
- GI50 (SF-539 CNS): 2.66 µM
- TGI (SF-539 CNS): 5.45 µM
- GI50 (SK-MEL-28 melanoma): 10.6 µM
- TGI (SK-MEL-28 melanoma): 46.8 µM
- GI50 (SK-MEL-5 melanoma): 12 µM
- TGI (SK-MEL-5 melanoma): 25.9 µM
- GI50 (SK-OV-3 ovarian): 16.4 µM
- TGI (SK-OV-3 ovarian): 36.1 µM
- GI50 (SN12C renal): 4.32 µM
- TGI (SN12C renal): 18 µM
- GI50 (SNB-19 CNS): 11 µM
- TGI (SNB-19 CNS): 25.3 µM
- GI50 (SR leukemia): 2.32 µM
- TGI (SR leukemia): 6.14 µM
- GI50 (SW-620 colon): 3.53 µM
- TGI (SW-620 colon): 10.7 µM
- GI50 (T-47D breast): 18.8 µM
- TGI (T-47D breast): 56.5 µM
- GI50 (TK-10 renal): 2.12 µM
- TGI (TK-10 renal): 7.31 µM
- GI50 (U251 CNS): 3.65 µM
- TGI (U251 CNS): 14.8 µM
- GI50 (UACC-257 melanoma): 9.04 µM
- TGI (UACC-257 melanoma): 22 µM
- GI50 (UACC-62 melanoma): 5.3 µM
- TGI (UACC-62 melanoma): 23.1 µM
